Literature values as cited in patent publication US12133913B2, “Methods of treating overactive bladder using trospium” (TARIS BIOMEDICAL LLC, priority 2018, dated 2024).
Where a name gives a salt, the structure may show the parent alone. Read-outs that look alike come from different tables or passages of the source.

Legend:
[1] = test system: oral naïve overactive bladder patients
[2] = in vivo

Compound: O=C(O[C@H]1CN2CCC1CC2)N1CCc2ccccc2[C@@H]1c1ccccc1 [VESIcare®, solifenacin succinate]
- Reduction in average daily incontinence episodes from baseline ([1]; oral treatment, oral naïve patients): 1.4

Compound: O=C(OC1CC2CCC(C1)[N+]21CCCC1)C(O)(c1ccccc1)c1ccccc1.[Cl-] (stereo not drawn) [oral trospium, 3-(2-hydroxy-2,2-diphenylacetoxy)spiro[bicyclo[3.2.1]octane-8,1′-pyrrolidin]-1′-ium chloride]
- Predicted urine levels achieved with oral trospium [2]: 0.5 to 1 µg/mL

Compound: Cc1ccc(O)c([C@H](CCN(C(C)C)C(C)C)c2ccccc2)c1 [Detrol® LA, tolterodine tartrate]
- Reduction in average daily incontinence episodes from baseline ([1]; in vivo, po): 0.8
